Read-outs that look alike come from different tables or passages of the source.
What was measured:
[1] = Plasma and urine pharmacokinetics after TP300 infusion (LC-MS/MS, non-compartmental); assay type: in vivo, human; details: for concentration at 1 h: human, in vivo, read-out: Plasma TP300 concentration 1 h after administration, mean
Procedure: Venous blood (3 mL) was taken into sodium heparin tubes containing 30 μL of 46% citric acid, centrifuged 1500g at 4°C for 10 min and 1 mol/L hydrochloric acid was added (1:10) to plasma from each subject at 10 time points during cycle 1 (pre dose, then 1, 1.25, 1.5, 2, 3, 5, 8, 24, 48 hours after the start of administration) and stored at −70°C. Samples were processed by extraction of protein using addition of organic solvent containing internal standards and assayed by LC-MS/MS with a robust, sensitive and validated method for the simultaneous determination of a novel topoisomerase 1 inhibitor CH0793076 (TP3076), the prodrug CH4556300 (TP300), and the active metabolite CH0793011 (TP3011). All plasma had been acidified during collection to avoid the pH-based degradation of TP300 and to shift the equilibria of TP3076 and TP3011 between the lactone and carboxylate forms towards the lactone forms. After the plasma proteins were precipitated with methanol:acetonitrile:HCl 1M (50:50:1, v:v:v) containing stable isotopic internal standards, the analytes were trapped on an Xterra MS C18 column (10×2.1 mm i.d., 5 μm) and separated on a Gemini C18 column (50×2.0 mm i.d., 5 μm) using column-switching liquid chromatography. Electrospray ionization in the positive-ion mode and multiple reaction monitoring were used to quantify the analytes with transitions m/z 587.2>441.2 for TP300, 459.1>415.2 for 3076, and 475.1>361.1 for 3011. The inter- and intra-day precisions were below 12%, and the accuracy was between −16% and 16% at the lower limit of quantitation (LLOQ) and between −11% and 14% at the other quality controls. The LLOQs of TP300, TP3076, and TP3011 were 0.8, 0.04, and 0.04 ng/mL, respectively.
Pharmacokinetic parameters derived from plasma concentration-time data of TP3076 or TP3011 by non-compartmental methods using WinNonlin (version 5.1; Pharsight Corp), included maximal plasma concentration (Cmax) and time of Cmax (Tmax), apparent plasma elimination half-life (t1/2), and the area under the curve (AUC). The urinary excretion ratio (fe) of TP3076 and TP3011 was calculated from the urinary concentration and volume up to 48 hours after administration, and the administration dose. The linearity of Cmax and AUC was determined with linear regression, analysis of variance and power model analysis. The sum of the AUCs of TP3076 and TP3011 was plotted against percentage (%) fall in nadir neutrophil count to explore the relationship between exposure and myelosuppression as a measure of anti-proliferative effect and a sigmoid Emax model fitted to the data: […]

[2] = Phase I dose escalation of TP300: toxicity (CTCAE v3.0), DLT, MTD; assay type: in vivo, human
Procedure: TP300 was given as a 1-hour intravenous (i.v.) infusion, by peripheral venous catheter, every 3 weeks.
(§1) The starting dose of 1 mg/m^2 was derived from single and repeat dose toxicity studies and represented one sixth of 0.3 mg/kg (6 mg/m^2), a dose tolerated without evidence of serious, irreversible or life-threatening toxicity in the most sensitive of the two species tested. Doses were doubled in subsequent cohorts until grade ≥2 toxicity was observed, whereupon a modified Fibonacci dose escalation scheme was used. In each cohort the first patient was required to complete 1 cycle before subsequent patients were entered. Intra-patient dose-escalation was not allowed.
The MTD was the dose level below that at which ≥ 2 out of 3–6 patients experienced a DLT. Radiologic assessment of disease was performed every 2 cycles. Patients could remain on treatment if there was evidence of clinical benefit but were withdrawn from the study upon clinical or radiologic progression, unacceptable toxicity or withdrawal of consent.
Toxicity was assessed weekly and graded using the National Cancer Institute Common Toxicity Criteria (CTCAE) version 3.0. DLT was defined as the occurrence of any of the following adverse events: grade 4 thrombocytopenia; febrile neutropenia or grade 4 neutropenia > 5 days duration; grade 4 diarrhoea not reduced to grade 1 within 2 days of appropriate therapy; other gastro-intestinal toxicities (e.g. vomiting, nausea, stomatitis) ≥ grade 3 and not reduced to grade 1 within 2 days of appropriate therapy; any other non-haematologic toxicities ≥ grade 3 (excluding alopecia).

[3] = test system: tumours over-expressing the breast cancer resistance protein [BCRP]; set-up: method as in PMID 19495753; details: unlike SN38; cited from earlier work
[4] = test system: range of tumour types in vitro; set-up: method as in PMID 19495753; details: cited from earlier work
[5] = Single and repeat dose toxicity studies (preclinical); assay type: in vivo; details: most sensitive of the two species tested; equals 6 mg/m^2
Procedure: as §1

[6] = test system: peripheral blood mononuclear cells (PBMCs); assay: Single cell gel electrophoresis (comet) assay of DNA strand breaks; assay type: in vivo, human; details: 1 hour post first dose, across all doses
Procedure: Analysis of the ability of TP300 to induce DNA strand breaks was performed on peripheral blood mononuclear cells (PBMCs), pre-dose, 1, 3 and 24 hours post cycle 1. A validated single cell gel electrophoresis (comet) assay was used to assess DNA single-strand breaks. An average of 50 PBMC cells/time-point were analysed and the tail moment (TM) calculated, as the product of the percentage of DNA in the comet tail and the distance between head and tail distributions; higher TM values reflect greater DNA strand breakage. Statistical analyses were not performed due to the limited number of subjects/samples per cohort.

[7] = suspected treatment related adverse events within cycle 1, N = 32, all doses 1-12 mg/m^2

In the case of CCCCCN1C=Nc2cccc3nc4c(c1c23)Cn1c-4cc2c(c1=O)COC(=O)[C@@]2(CC)OC(=O)CN(C)C(=O)CN [TP300, glycine,glycyl-N-methyl-,(9S)-9-ethyl-9,10,13,15-tetrahydro-10,13-dioxo-1-pentyl-1H,12H-pyrano[3'',4'':6′,7′]indolizino[2′,1′:5,6]pyrido[4,3,2-de]quinazolin-9-yl ester, hydro-chloride], the “measured plasma concentrations 1.5 h after dose” value ([1]; all doses, LLOQ of TP300 0.8 ng/mL) was “below the limit of the quantification”, the concentration at 1 h ([1]; TP300 2 mg/m^2) was 3.48 ng/mL and the concentration at 1 h ([1]; TP300 8 mg/m^2) was 2.34 ng/mL. The concentration at 1 h ([1]; TP300 10 mg/m^2) was 7.37 ng/mL, the concentration at 1 h ([1]; TP300 12 mg/m^2) was 18.4 ng/mL and the “DLTs (patients with DLT / patients dosed)” value ([2]; 10 mg/m^2) was 3/12. The “DLTs (patients with DLT / patients dosed)” value ([2]; 12 mg/m^2) was 2/4, the “MTD (maximum tolerated dose)” value ([2]; 1-hour i.v. infusion 3-weekly, patients with advanced solid tumors) was 10 mg/m^2 and the “worst grade of diarrhoea” value ([2]; 8 patients developed diarrhoea, all doses) was at most 2 grade. The “time to diarrhoea after TP300 treatment, average” value ([2]; 8 patients with diarrhoea) was 9.5 days, the “time to diarrhoea after TP300 treatment, range” value ([2]; 8 patients with diarrhoea) was 1 to 27 days and the cholinergic effects ([2]; 32 patients, all doses) was “no patient experienced cholinergic effects”. For the same compound, the “patients discontinued due to toxicity” value ([2]; 32 patients, all doses) was 4 patients, the treatment-related deaths ([2]; 32 patients, all doses) was “no treatment-related deaths” and the “recommended Phase II starting dose” value ([2]; cycle 1) was 8 mg/m^2. For the same compound, the “recommended Phase II dose on subsequent cycles” value ([2]; escalation if initial treatment is well tolerated) was 10 mg/m^2, the “Anaemia, All grade” value [2, 7] was 6 ( 19) No. (%) and the “Anaemia, Grade 3” value [2, 7] was 2 ( 6) No. (%). For the same compound, the “Back pain, All grade” value [2, 7] was 1 ( 3) No. (%), the “Back pain, Grade 3” value [2, 7] was 1 ( 3) No. (%) and the “Chills, All grade” value [2, 7] was 2 ( 6) No. (%). For the same compound, the “Chills, Grade 3” value [2, 7] was 1 ( 3) No. (%), the “Diarrhea, All grade” value [2, 7] was 8 ( 25) No. (%) and the “Diarrhea, Grade 3” value [2, 7] was 0 (0) No. (%). For the same compound, the “Dyspnoea, All grade” value [2, 7] was 1 ( 3) No. (%), the “Dyspnoea, Grade 3” value [2, 7] was 1 ( 3) No. (%) and the “Febrile neutropenia, All grade” value [2, 7] was 2 ( 6) No. (%). For the same compound, the “Febrile neutropenia, Grade 3” value [2, 7] was 2 ( 6) No. (%), the “Hepatorenal failure, All grade” value [2, 7] was 1 ( 3) No. (%) and the “Hepatorenal failure, Grade 3” value [2, 7] was 1 ( 3) No. (%). The “Lethargy, All grade” value [2, 7] was 12 ( 38) No. (%), the “Lethargy, Grade 3” value [2, 7] was 4 ( 13) No. (%) and the “Leukopenia, All grade” value [2, 7] was 3 ( 9) No. (%). For the same compound, the “Leukopenia, Grade 3” value [2, 7] was 3 ( 9) No. (%), the “Nausea, All grade” value [2, 7] was 13 ( 41) No. (%) and the “Nausea, Grade 3” value [2, 7] was 0 (0) No. (%). The “Neutropenia, All grade” value [2, 7] was 6 ( 19) No. (%), the “Neutropenia, Grade 3” value [2, 7] was 6 ( 19) No. (%) and the “Neutropenic sepsis, All grade” value [2, 7] was 1 ( 3) No. (%). For the same compound, the “Neutropenic sepsis, Grade 3” value [2, 7] was 1 ( 3) No. (%), the “Syncope, All grade” value [2, 7] was 1 ( 3) No. (%) and the “Syncope, Grade 3” value [2, 7] was 1 ( 3) No. (%). The “Thrombocytopenia, All grade” value [2, 7] was 3 ( 9) No. (%), the “Thrombocytopenia, Grade 3” value [2, 7] was 3 ( 9) No. (%) and the “Vomitting, All grade” value [2, 7] was 9 ( 28) No. (%). For the same compound, the “Vomitting, Grade 3” value [2, 7] was 0 (0) No. (%), the “activity in tumours over-expressing BCRP” value [3] was “appears active” and the “activity across a range of tumour types in vitro” value [4] was “activity at nanomolar concentrations”. The “dose tolerated without evidence of serious, irreversible or life-threatening toxicity” value [5] was 0.3 mg/kg, the “increase of DNA strand breaks vs pre-treatment” value [6] was “approximately 2 fold” and the “mean tail moment (TM)” value ([6]; pre-treatment mean 0.69) was 1.65.

— publication PMC3517777, “Phase I study of TP300 in patients with advanced solid tumors with pharmacokinetic, pharmacogenetic and pharmacodynamic analyses” (BMC Cancer, 2012)
